Legend:
Botrytis cinerea = experiment: Activity against gray mold on bell pepper leaves caused by Botrytis cinerea, protective application; format: in vivo; settings: 250 ppm active compound, sprayed to runoff, bell pepper seedlings, inoculated next day, assessed after 5 days; untreated plants 90% infected
Procedure: The active compounds were prepared separately as a stock solution with 0.25% by weight of active compound in acetone or DMSO. 1% by weight of the emulsifier Uniperol® EL (wetting agent having emulsifying and dispersing action based on ethoxylated alkyl-phenols) was added to this solution. The stock solutions of the active compounds were diluted with water to the desired concentration. 1) Activity Against Gray Mold on Bell Pepper Leaves Caused by Botrytis cinerea, Protective Application […] The next day, the treated plants were inoculated with a spore suspension of Botrytis cinerea, this contained 1.7×10^6 spores/ml in a 2% strength aqueous biomalt solution. The test plants were then placed in a climate-chamber at 22-24° C. and high atmospheric humidity.

[1] = tested on: Pyrenophora [syn. Drechslera] teres; experiment: Activity against net blotch of barley caused by Pyrenophora teres; format: in vivo; settings: 250 ppm active compound, sprayed to runoff, barley seedlings, inoculated 24 hours after drying, assessed after 6 days; untreated plants 80% infected
Procedure: The active compounds were prepared separately as a stock solution with 0.25% by weight of active compound in acetone or DMSO. 1% by weight of the emulsifier Uniperol® EL (wetting agent having emulsifying and dispersing action based on ethoxylated alkyl-phenols) was added to this solution. The stock solutions of the active compounds were diluted with water to the desired concentration. 4) Activity Against Net Blotch of Barley Caused by Pyrenophora teres […] Drechslera] teres, the causative agent of net blotch. The test plants were subsequently placed in a greenhouse at temperatures of between 20 and 24° C. and a relative atmospheric humidity of 95 to 100%. After 6 days, the extent of development of the disease was determined visually in % of infection of the total leaf area.

| Compound | extent of the fungal infection on the leaves determined visually in % (Botrytis cinerea) | melting point | extent of development of the disease determined visually in % of infection of the total leaf area [1] |
| --- | --- | --- | --- |
| C[C@H](Nc1nc(C(N)=S)nc(Cl)c1-c1c(F)cc(F)cc1F)C(F)(F)F [Compound I-2, (S)-4-chloro-6-(2,2,2-trifluoro-1-methylethylamino)-5-(2,4,6-trifluorophenyl)pyrimidine-2-thiocarbamide] | not infected |  |  |
| CC(C)Nc1nc(C(N)=S)nc(Cl)c1-c1c(F)cccc1Cl [Compound I-3] | not infected |  |  |
| CC(C)Nc1nc(C(N)=S)nc(Cl)c1-c1c(F)cc(F)cc1F [Compound I-4] | not infected | 145 to 149 °C |  |
| CCC(C)Nc1nc(C(N)=S)nc(Cl)c1-c1c(F)cccc1Cl (stereo not drawn) [Compound I-8, 4-sec-butylamino-6-chloro-5-(2-chloro-6-fluorophenyl)pyrimidine-2-thiocarbamide] | not infected | 147 to 150 °C |  |
| CCN(CC)c1nc(C(N)=S)nc(Cl)c1-c1c(F)cc(F)cc1F [Compound I-19] |  | 55 to 58 °C | 10% |
| Cc1nc(C(N)=S)nc(NC(C)C)c1-c1c(F)cc(F)cc1F [Compound I-23] |  | 158 °C |  |
